Assay results taken from patent publication US11795460B2, “Compositions and methods for TTR gene editing and treating ATTR amyloidosis” (Intellia Therapeutics, Inc., priority 2017, dated 2023).

What was measured:
TTR [1] = assay: TTR editing in HepG2 cells transfected with Spy Cas9 mRNA and dgRNAs (Table 6); type: cell-based, human; conditions: HepG2 cells co-transfected with Spy Cas9 mRNA (SEQ ID NO:2) and dgRNAs
Procedure: HepG2 cell line. The human hepatocellular carcinoma cell line HepG2 (American Type Culture Collection, Cat. HB-8065) was cultured in DMEM media supplemented with 10% fetal bovine serum. Cells were counted and plated on Bio-coat collagen I coated 96-well plates (ThermoFisher, Cat. 877272) at a density of 10,000 cells/well in a 96-well plate 24 hours prior to transfection. Cells were transfected with Lipofectamine 2000 (ThermoFisher, Cat. 11668019) per the manufacturer's protocol. Cells were sequentially transfected with lipoplex containing Spy Cas9 mRNA (100 ng), Lipofectamine 2000 (0.2 μL/well) and OptiMem followed by a separate lipoplex containing individual crRNA (25 nM), tracer RNA (25 nM), Lipofectamine 2000 (0.2 μL/well) and OptiMem.
(§1) Transfected cells were harvested post-transfection at 24, 48, or 72 hours. The genomic DNA was extracted from each well of a 96-well plate using 50 μL/well BuccalAmp DNA Extraction solution (Epicentre, Cat. QE09050) per manufacturer's protocol. All DNA samples were subjected to PCR and subsequent NGS analyses, as described herein.
(§2) To quantitatively determine the efficiency of editing at the target location in the genome, sequencing was utilized to identify the presence of insertions and deletions introduced by gene editing.
(§3) Primers were designed around the target site within the gene of interest (e.g. TTR), and the genomic area of interest was amplified.
(§4) Additional PCR was performed per the manufacturer's protocols (Illumina) to add chemistry for sequencing. The amplicons were sequenced on an Illumina MiSeq instrument. The reads were aligned to a reference genome (e.g., the human reference genome (hg38), the cynomologus reference genome (mf5), the rat reference genome (rn6), or the mouse reference genome (mm10)) after eliminating those having low quality scores. The resulting files containing the reads were mapped to the reference genome (BAM files), where reads that overlapped the target region of interest were selected and the number of wild type reads versus the number of reads which contain an insertion, substitution, or deletion was calculated.
(§5) The editing percentage (e.g., the “editing efficiency” or “percent editing” or “indel frequency”) is defined as the total number of sequence reads with insertions/deletions (“indels”) or substitutions over the total number of sequence reads, including wild type.
(§6) Guides in dgRNA format targeting human TTR and the cynomologus matched sequences were delivered to HEK293 Cas9, HUH7 and HepG2 cell lines, as well as primary human hepatocytes and primary cynomolgus monkey hepatocytes as described in Example 1. Percent editing was determined for crRNAs comprising each guide sequence across each cell type and the guide sequences were then rank ordered based on highest % edit. The screening data for the guide sequences in Table 1 in all five cell lines are listed below (Table 4 through 11).

TTR [2] = assay: TTR editing in primary human hepatocytes electroporated with Spy Cas9 protein loaded with dgRNAs (Table 7); type: cell-based; conditions: dgRNA electroporated with Spy Cas9 protein (RNP)
Procedure: (§7) Primary liver hepatocytes. Primary human liver hepatocytes (PHH) and primary cynomolgus liver hepatocytes (PCH) (Gibco) were cultured per the manufacturer's protocol (Invitrogen, protocol 11.28.2012). In brief, the cells were thawed and resuspended in hepatocyte thawing medium with supplements (Gibco, Cat. CM7000) followed by centrifugation at 100 g for 10 minutes for human and 80 g for 4 minutes for cyno. The supernatant was discarded and the pelleted cells resuspended in hepatocyte plating medium plus supplement pack (Invitrogen, Cat. A1217601 and CM3000). Cells were counted and plated on Bio-coat collagen I coated 96-well plates (ThermoFisher, Cat. 877272) at a density of 33,000 cells/well for human or 60,000 cells/well for cyno (or 65,000 cells/well when assaying effects on TTR protein, described further below). Plated cells were allowed to settle and adhere for 6 or 24 hours in a tissue culture incubator at 37° C. and 5% CO2 atmosphere. After incubation cells were checked for monolayer formation and media was replaced with hepatocyte culture medium with serum-free supplement pack (Invitrogen, Cat. A1217601 and CM4000).
(§8) […] formation was performed prior to electroporation or transfection of Spy Cas9 protein loaded with guide RNAs (RNPs) onto cells. For dual guide (dgRNAs), individual crRNA and trRNA was pre-annealed by mixing equivalent amounts of reagent and incubating at 95° C. for 2 min and cooling to room temperature. Single guide (sgRNAs) were boiled at 95° C. for 2 min and cooling to room temperature. The boiled dgRNA or sgRNA was incubated with Spy Cas9 protein in Optimem for 10 minutes at room temperature to form a ribonucleoprotein (RNP) complex.
For RNP electroporation into primary human and cyno hepatocytes, the cells are thawed and resuspended in Lonza electroporation Primary Cell P3 buffer at a concentration of 2500 cells per μL for human hepatocytes and 3500 cells per μL for cyno hepatocytes. A volume of 20 μL of resuspended cells and 5 μL of RNP are mixed together per guide. 20 μL of the mixture is placed into a Lonza electroporation plate. The cells were electroporated using the Lonza nucleofector with the preset protocol EX-147. Post electroporation, the cells are transferred into a Biocoat plate containing pre-warmed maintenance media and placed in a tissue culture incubator at 37° C. and 5% CO2.
as §1, §2, §3, §4
The editing percentage (e.g., the “editing efficiency” or “percent editing” or “indel frequency”) is defined as the total number of sequence reads with insertions/deletions (“indels”) or substitutions over the total number of sequence reads, including wild type. […]

TTR [3] = assay: TTR editing in primary human hepatocytes transfected with Spy Cas9 protein (RNP) loaded with dgRNAs (Table 8); type: cell-based; conditions: dgRNA transfected with Spy Cas9 protein (RNP)
Procedure: as §7, §8
For RNP lipoplex transfections, cells were transfected with Lipofectamine RNAiMAX (ThermoFisher, Cat. 13778150) per the manufacturer's protocol. Cells were transfected with an RNP containing Spy Cas9 (10 nM), individual guide (10 nM), tracer RNA (10 nM), Lipofectamine RNAiMAX (1.0 μL/well) and OptiMem. RNP formation was performed as described above.
as §1, §2, §3, §4, §5
Guides in dgRNA format targeting human TTR and the cynomologus matched sequences were delivered to HEK293 Cas9, HUH7 and HepG2 cell lines, as well as primary human hepatocytes and primary cynomolgus monkey hepatocytes as described in Example 1. […]

TTR [4] = assay: TTR editing in primary human hepatocytes transfected with Spy Cas9 mRNA and dgRNAs (Table 9); type: cell-based; conditions: dgRNA co-transfected with Spy Cas9 mRNA (SEQ ID NO:2)
Procedure: as §7
Lipofectamine RNAiMax (ThermoFisher, Cat. 13778150) based transfections were conducted as per the manufacturer's protocol. Cells were sequentially transfected with a lipoplex containing Spy Cas9 mRNA (100 ng), Lipofectamine RNAiMax (0.4 μL/well) and OptiMem followed by a separate lipoplex containing crRNA (25 nM) and tracer RNA (25 nM) or sgRNA (25 nM), Lipofectamine RNAiMax (0.4 μL/well) and OptiMem.
as §1, §2, §3, §4, §5, §6

TTR [5] = assay: TTR editing in HEK293_Cas9 cells transfected with dgRNAs (Table 4); type: cell-based, human; conditions: HEK293_Cas9 cells (constitutively express Spy Cas9) transfected with dgRNAs
Procedure: HEK293 Cas9 cell line. The human embryonic kidney adenocarcinoma cell line HEK293 constitutively expressing Spy Cas9 (“HEK293_Cas9”) was cultured in DMEM media supplemented with 10% fetal bovine serum and 500 μg/ml G418. Cells were plated at a density of 10,000 cells/well in a 96-well plate 24 hours prior to transfection. Cells were transfected with Lipofectamine RNAiMAX (ThermoFisher, Cat. 13778150) per the manufacturer's protocol. Cells were transfected with a lipoplex containing individual crRNA (25 nM), trRNA (25 nM), Lipofectamine RNAiMAX (0.3 μL/well) and OptiMem.
as §1, §2, §3, §4, §5, §6

TTR [6] = assay: TTR editing in HUH7 cells transfected with Spy Cas9 mRNA and dgRNAs (Table 5); type: cell-based, human; conditions: HUH7 cells co-transfected with Spy Cas9 mRNA (SEQ ID NO:2) and dgRNAs
Procedure: HUH7 cell line. The human hepatocellular carcinoma cell line HUH7 (Japanese Collection of Research Bioresources Cell Bank, Cat. JCRB0403) was cultured in DMEM media supplemented with 10% fetal bovine serum. Cells were plated on at a density of 15,000 cells/well in a 96-well plate 20 hours prior to transfection. Cells were transfected with Lipofectamine MessengerMAX (ThermoFisher, Cat. LMRNA003) per the manufacturer's protocol. Cells were sequentially transfected with a lipoplex containing Spy Cas9 mRNA (100 ng), MessengerMAX (0.3 μL/well) and OptiMem followed by a separate lipoplex containing individual crRNA (25 nM), tracer RNA (25 nM), MessengerMAX (0.3 μL/well) and OptiMem.
as §1, §2, §3, §4, §5, §6

Row | Sequence | Avg % Deletion (TTR [1]) | Avg % Edit (TTR [1]) | Avg % Insert (TTR [1]) | Avg % Deletion (TTR [2]) | Avg % Edit (TTR [2]) | Avg % Insert (TTR [2]) | Avg % Deletion (TTR [3]) | Avg % Edit (TTR [3]) | Avg % Insert (TTR [3]) | Avg % Deletion (TTR [4]) | Avg % Edit (TTR [4]) | Avg % Insert (TTR [4]) | Avg % Deletion (TTR [5]) | Avg % Edit (TTR [5]) | Avg % Insert (TTR [5]) | Avg % Deletion (TTR [6]) | Avg % Edit (TTR [6]) | Avg % Insert (TTR [6])
1 | AAAUCUUACUGGAAGGCACU (tested as dual guide RNA, chemistry not given here) [CR005306] | 2.87% | 24.07% | 21.20% | 1.37% | 9.43% | 8.07% | 2.57% | 18.81% | 16.24% | 2.87% | 9.97% | 7.13% | – | – | – | – | – | –
2 | AAUGGUGUAGCGGCGGGGGC (tested as dual guide RNA, chemistry not given here) [CR003375] | 0.10% | 2.06% | 1.96% | 0.07% | 1.33% | 1.27% | 0.11% | 5.04% | 4.93% | 0.03% | 1.27% | 1.23% | 10.85% | 11.63% | 0.78% | 2.25% | 2.38% | 0.26%
3 | ACCUGGGAGCCAUUUGCCUC (tested as dual guide RNA, chemistry not given here) [CR003354] | 0.53% | 5.36% | 4.84% | 0.03% | 2.50% | 2.43% | 0.23% | 10.31% | 10.07% | 0.13% | 2.97% | 2.87% | 15.90% | 18.46% | 2.56% | 11.46% | 12.27% | 1.25%
4 | CACAUGCACGGCCACAUUGA (tested as dual guide RNA, chemistry not given here) [CR003350] | 4.44% | 29.60% | 25.16% | 5.73% | 28.13% | 22.40% | 5.07% | 24.84% | 19.77% | 10.33% | 26.63% | 16.33% | 16.77% | 22.31% | 5.54% | 41.64% | 52.91% | 13.43%
5 | CGGCAAUGGUGUAGCGGCGG (tested as dual guide RNA, chemistry not given here) [CR003376] | 0.24% | 14.41% | 14.16% | 0.03% | 1.90% | 1.87% | 0.14% | 5.00% | 4.86% | 0.13% | 2.83% | 2.73% | 26.81% | 28.16% | 1.35% | 18.55% | 19.42% | 1.37%
6 | GCGGCGGGGGCCGGAGUCGU (tested as dual guide RNA, chemistry not given here) [CR003374] | 0.31% | 5.43% | 5.12% | 0.10% | 0.80% | 0.70% | 0.14% | 2.65% | 2.52% | 0.03% | 0.27% | 0.27% | 10.10% | 10.91% | 0.81% | 2.87% | 3.10% | 0.45%
